Data from patent publication US9815831B2, “3,5-disubstituted-3H-imidazo[4,5-B]pyridine and 3,5-disubstituted-3H-[1,2,3]triazolo[4,5-B] pyridine compounds as modulators of c-Met protein kinases” (Rhizen Pharmaceuticals SA, priority 2012, dated 2017).
Like-named read-outs stand apart in the source and are kept apart here.

Legend:
[1] = tested on: MDA-MB-231 cells; experiment: Inhibition of HGF-induced cell proliferation in MDA-MB-231 cells (MTT); assay type: cell-based; settings: Homo sapiens, Table 8, HGF (50 ng/ml)
Experimental: 8. Inhibition of HGF-Induced Met Phosphorylation in MDA-MB-231 Cells:
MDA-MB-231 is a breast cancer cell line having a high level of c-Met expression. Activation of Met kinase in these cells occurs only after the addition of its natural ligand, Hepatocyte Growth Factor (HGF). Upon binding to the extracellular domain of the enzyme, it triggers phosphorylation of tyrosine residues and regulates several downstream events such as cell proliferation. Cell proliferation assays were carried out using the high Met expressing cell line (MDA-MB-231) according to the following schedule: • Day 1: Cells were plated in 96-well plates in complete growth medium. • Day 2: Media was replaced with starvation medium containing 0.04% BSA. • Day 3: Inhibitors at the desired concentrations and HGF (50 ng/ml) were added. • Day 5: Cell viability was determined using the 3-[4,5-dimethylthiazol-2-yl]-2,5-diphenyltetrazolium bromide (MTT) dye reduction test. […] Results: The results are provided below in Table 8 as IC50 values.

[2] = tested on: Akt; experiment: Inhibition of Akt phosphorylation in NCI-H441 cells (Western blot); assay type: cell-based; settings: Homo sapiens, Table 6, 0-1000 nM
Experimental: (§1) 6. Inhibition of Akt Phosphorylation in MKN-45 or NCI-H441 Cells:
(§2) Akt is a serine-threonine kinase and a downstream marker regulated by c-Met kinase via the PI3K pathway. Once phosphorylated, Akt regulates several end processes including cell survival and growth. Cells were treated with 0-1000 nM of test compounds, lysed, and the proteins separated on a 10% SDS-PAGE. Following separation, proteins were transferred onto a nitrocellulose membrane and detected by chemiluminescence after incubation with […] (primary) and rabbit anti-mouse Ab (secondary). Intensity of the bands was determined using ImageJ 1.42q (NIH, USA) and normalized to Actin (loading control).
(§3) Results: The results are provided below as IC50 values in Table 6.

[3] = tested on: MKN-45; experiment: Inhibition of MKN-45 proliferation (MTT); assay type: cell-based, human; settings: MKN-45 proliferation; for inhibition at 0.1 µM / GI50: Homo sapiens; for inhibition at 0.1 µM: read-out: MKN45 % inhibition @ 100 nM; for GI50: read-out: MKN45 GI50
In short: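 High-Met human gastric adenocarcinoma MKN-45 cells plated on day 1 and exposed to compound from day 2. Viability measured by MTT dye reduction on day 5; output given as % inhibition at 100 nM and GI50.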

[4] = target: T1, c-Met kinase (Homo sapiens, UniProt P08581); experiment: Inhibition of c-Met kinase phosphorylation in MKN-45 cells (cell based ELISA); parameters: endogenous in cells; host or cells: MKN-45; settings: Table 4D, 1 h incubation
T1 sequence (P08581 25-1390): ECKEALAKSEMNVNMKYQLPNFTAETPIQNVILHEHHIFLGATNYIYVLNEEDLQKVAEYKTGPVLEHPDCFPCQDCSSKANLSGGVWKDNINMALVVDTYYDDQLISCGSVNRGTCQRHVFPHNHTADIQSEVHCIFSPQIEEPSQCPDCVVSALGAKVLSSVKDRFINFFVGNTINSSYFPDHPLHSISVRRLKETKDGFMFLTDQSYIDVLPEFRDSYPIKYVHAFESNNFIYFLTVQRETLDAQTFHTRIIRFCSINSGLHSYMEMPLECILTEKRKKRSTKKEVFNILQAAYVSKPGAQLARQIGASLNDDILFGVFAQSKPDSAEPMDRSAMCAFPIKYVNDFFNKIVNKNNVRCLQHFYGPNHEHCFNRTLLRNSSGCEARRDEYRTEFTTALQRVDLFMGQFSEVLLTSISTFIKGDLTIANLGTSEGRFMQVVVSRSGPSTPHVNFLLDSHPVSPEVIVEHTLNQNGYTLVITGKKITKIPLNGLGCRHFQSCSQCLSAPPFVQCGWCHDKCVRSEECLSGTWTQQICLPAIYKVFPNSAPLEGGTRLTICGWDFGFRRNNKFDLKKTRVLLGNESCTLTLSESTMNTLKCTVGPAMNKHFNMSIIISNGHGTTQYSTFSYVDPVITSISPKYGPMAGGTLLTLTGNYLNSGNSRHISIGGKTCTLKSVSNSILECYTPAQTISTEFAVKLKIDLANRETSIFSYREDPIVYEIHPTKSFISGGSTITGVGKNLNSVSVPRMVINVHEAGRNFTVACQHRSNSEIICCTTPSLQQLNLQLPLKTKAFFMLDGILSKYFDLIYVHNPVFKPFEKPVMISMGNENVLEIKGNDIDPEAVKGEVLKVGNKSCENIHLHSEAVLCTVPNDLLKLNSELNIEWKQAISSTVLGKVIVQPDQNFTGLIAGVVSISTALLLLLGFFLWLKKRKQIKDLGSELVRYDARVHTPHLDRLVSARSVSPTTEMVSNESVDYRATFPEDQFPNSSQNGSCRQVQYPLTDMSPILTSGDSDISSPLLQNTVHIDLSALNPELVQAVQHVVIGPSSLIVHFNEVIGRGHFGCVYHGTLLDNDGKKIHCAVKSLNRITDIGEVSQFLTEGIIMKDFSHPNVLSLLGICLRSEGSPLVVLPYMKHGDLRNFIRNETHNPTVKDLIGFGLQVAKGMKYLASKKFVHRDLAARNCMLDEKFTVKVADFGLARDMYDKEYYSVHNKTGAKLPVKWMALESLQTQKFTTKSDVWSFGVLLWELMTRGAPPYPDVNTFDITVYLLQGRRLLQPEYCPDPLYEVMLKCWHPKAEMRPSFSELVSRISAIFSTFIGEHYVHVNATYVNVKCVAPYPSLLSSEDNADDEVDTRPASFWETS
Experimental: MKN45 cells are a prototype of “c-Met addicted” cells having constitutively activated c-Met kinase similar to that observed in sub-sects of gastric or hepatocellular cancer patients with dysregulated c-Met kinase activity. Inhibition of Met phosphorylation was determined using a cell based ELISA assay according to the following schedule: • Day 1: MKN-45 cells were plated in 96-well plates in complete growth medium. • Day 2: Inhibitors at the desired concentration were added to the plates and incubated for 1 h and lysed subsequently. Lysates were transferred to NUNC Maxisorp plates coated with anti-cMet receptor antibody. Phopho-tyrosine mAb and HRP-lined anti-mouse IgG were used as primary and secondary antibodies respectively. Optical density was measured on a microplate reader (BMG Labtech., Germany) at […]. Inhibition of c-Met phosphorylation in this cell line indicates a therapeutic potential for test compounds in patients diagnosed with cancers caused by aberrant c-Met kinase signalling. Results: The results are provided above in Table 4D as IC50 values.

[5] = target: T1, c-Met kinase; experiment: Inhibition of c-Met kinase phosphorylation in NCI-H441 cells (cell based ELISA); settings: Table 5, 1 h incubation
Experimental: 5. Inhibition of c-Met Kinase Phosphorylation in NCI-H441 Cells:
Inhibition of Met phosphorylation was determined using a cell based ELISA assay according to the following schedule: • Day 1: NCI-H441 cells were plated in 96-well plates in complete growth medium. • Day 2: Inhibitors at the desired concentration were added to the plates, incubated for 1 h and lysed subsequently. Lysates were transferred to NUNC Maxisorp plates coated with anti-cMet receptor antibody. Phopho-tyrosine mAb and HRP-lined anti-mouse IgG were used as primary and secondary antibodies respectively. Optical density was measured on a microplate reader (BMG Labtech., Germany) at […]. […] Results: The results are given below in Table 5 as IC50 values.

[6] = tested on: Akt; experiment: Inhibition of Akt phosphorylation in MKN-45 cells (Western blot); assay type: cell-based; settings: Homo sapiens, Table 6, 0-1000 nM
Experimental: as §1, §2, §3

[7] = tested on: MKN-45 cells; experiment: Induction of apoptosis in MKN-45 cells (caspase-3 activity); assay type: cell-based, human; settings: percentage induction @ 3 μM; caspase-3, MKN-45 cells, 24 h; percent of maximum response
Experimental: 7. Induction of Apoptosis in MKN-45 Cells: I
Induction of Caspase 3 was measured fluorimetrically. Cells were incubated with desired concentrations of the compound for 24 h. After incubation, cells were harvested and counted. An equal number of viable cells per well (0.3×10^6 cells) were used for determination of caspase-3 activity. Increase in apoptosis manifested by an elevation in caspase-3 levels was determined using a Caspase-3 kit from Millipore. Data are expressed as a percent of the maximum response (100%).
Results: The results are provided below as percentage induction @ 3 μM in Table 7.

[8] = target: T2, human recombinant Met kinase (Homo sapiens, UniProt P08581); experiment: Colorimetric determination of c-Met kinase activity (HTScan Met Kinase Assay Kit); assay type: biochemical; settings: read-out: c-Met Enzyme IC50
T2 construct: purchased Cell Signalling Technology, Beverly, Mass
T2 sequence (P08581 25-1390): as above

[9] = target: T2, human recombinant Met kinase; experiment: as above; assay type: biochemical; settings: Table 4A; 100 nM (cells without *); read-out: c-Met Enzyme % inhibition @ 100 nM
In short: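 Human recombinant Met kinase was preincubated with compound for 5 min at room temperature, then reacted with ATP and biotinylated peptide for 30 min; EDTA stop. Phosphopeptide captured on streptavidin and detected with phospho-tyrosine mAb and europium anti-mouse IgG by time-resolved fluorescence (340/615 nm). Reported as % inhibition or IC50.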

| IC50 [1] [nM] | IC50 [2] [nM] | GI50 ([3]; MKN-45, Table 4C) [nM] | IC50 [4] [nM] | IC50 [5] [nM] | IC50 [6] [nM] | IC50 ([8]; Table 4C) [nM] | GI50 ([3]; MKN-45, Table 4A) [nM] | inhibition at 0.1 µM [9] [%] | IC50 ([8]; Table 4A) [nM] | SMILES | inhibition at 0.1 µM ([3]; MKN-45, Table 4C, 100 nM) [%] | % induction of caspase-3 activity [7] | MKN45 % inhibition @ 100 nM ([3]; Table 4A, 100 nM, 0.1 µM) | inhibition at 0.1 µM ([3]; MKN-45, Table 4A, 100 nM) [%] |
| --- | --- | --- | --- | --- | --- | --- | --- | --- | --- | --- | --- | --- | --- | --- |
| < 10 | ≤ 10 | – | 25 to 50 | ≤ 10 | 10 to 25 | – | 25 to 50 | 75 to 100 | 25 to 50 | Cc1cc(-c2ccc3nnn(Cc4ccc5ncccc5c4)c3n2)ccc1C(=O)NOCCO [Example 25, N-(2-hydroxyethoxy)-2-methyl-4-(3-(quinolin-6-ylmethyl)-3H-[1,2,3]triazolo[4,5-b]pyridin-5-yl)benzamide] | – | B (B is <75 and ≧50) | A (A= ≧75 to 100%) | – |
| < 10 | ≤ 10 | – | 25 to 50 | ≤ 10 | 10 to 25 | – | 25 to 50 | – | 25 to 50 | O=C(NOCCO)c1ccc(-c2ccc3nnn(Cc4ccc5ncccc5c4)c3n2)cc1Cl [Example 6, 2-chloro-N-(2-hydroxyethoxy)-4-(3-(quinolin-6-ylmethyl)-3H-[1,2,3]triazolo[4,5-b]pyridin-5-yl)benzamide] | – | B (B is <75 and ≧50) | – | 75 to 100 |

Further lines, the molecule ahead of its results:

| SMILES | IC50 [1] [nM] | IC50 [2] [nM] | GI50 ([3]; MKN-45, Table 4C) [nM] | IC50 [4] [nM] | IC50 [5] [nM] | IC50 [6] [nM] | IC50 ([8]; Table 4C) [nM] | GI50 ([3]; MKN-45, Table 4A) [nM] | inhibition at 0.1 µM [9] [%] | IC50 ([8]; Table 4A) [nM] | inhibition at 0.1 µM ([3]; MKN-45, Table 4C, 100 nM) [%] | % induction of caspase-3 activity [7] | MKN45 % inhibition @ 100 nM ([3]; Table 4A, 100 nM, 0.1 µM) | inhibition at 0.1 µM ([3]; MKN-45, Table 4A, 100 nM) [%] |
| --- | --- | --- | --- | --- | --- | --- | --- | --- | --- | --- | --- | --- | --- | --- |
| NC(=O)c1c(F)cc(-c2ccc3nnn(Cc4ccc5ncsc5c4)c3n2)cc1F [Example 1006, 4-(3-(benzo[d]thiazol-6-ylmethyl)-3H-[1,2,3]triazolo[4,5-b]pyridin-5-yl)-2,6-difluorobenzamide] | 10 to 50 | ≤ 10 | 25 to 50 | 25 to 50 | ≤ 10 | 25 to 50 | 25 to 50 | – | – | – | 75 to 100 | B (B is <75 and ≧50) | – | – |
| CC(C)(O)CONC(=O)c1ccc(-c2ccc3nnn(Cc4ccc5ncccc5c4)c3n2)cc1Cl [Example 30, 2-chloro-N-(2-hydroxy-2-methylpropoxy)-4-(3-(quinolin-6-ylmethyl)-3H-[1,2,3]triazolo[4,5-b]pyridin-5-yl) benzamide] | < 10 | ≤ 10 | – | 25 to 50 | 10 to 25 | 25 to 50 | – | 25 to 50 | 75 to 100 | 25 to 50 | – | B (B is <75 and ≧50) | – | 75 to 100 |
| Cc1cc(-c2ccc3nnn(Cc4ccc5ncccc5c4)c3n2)ccc1C(=O)NOCC(C)(C)O [Example 33, N-(2-hydroxy-2-methylpropoxy)-2-methyl-4-(3-(quinolin-6-ylmethyl)-3H-[1,2,3]triazolo[4,5-b]pyridin-5-yl)benzamide] | 10 to 50 | ≤ 10 | – | 10 to 25 | ≤ 10 | 25 to 50 | – | – | 75 to 100 | – | – | A (A is ≧75) | – | – |
